Legend:
Type in all cases: functional
Tetranychus cinnabarinus [1] = test: Insecticidal activity against Tetranychus cinnabarinus (carmine spider mite) infested on Sieva bean plants leaves exposed to compound formulation at 50 mg/kg assessed as insect mortality measured 2 days post compound treatment; conditions: 48 h
Tetranychus cinnabarinus [2] = test: Insecticidal activity against Tetranychus cinnabarinus (carmine spider mite) infested on Sieva bean plants leaves exposed to compound formulation at 100 mg/kg assessed as insect mortality measured 2 days post compound treatment; conditions: 48 h
Tetranychus cinnabarinus [3] = test: Insecticidal activity against Tetranychus cinnabarinus (carmine spider mite) infested on Sieva bean plants leaves exposed to compound formulation at 200 mg/kg assessed as insect mortality measured 2 days post compound treatment; conditions: 48 h
Mythimna separata [4] = test: Insecticidal activity against Mythimna separata (Oriental armyworm) fourth-instar larvae infested compound pre-treated corn leaves assessed as insect mortality at 10 mg/kg measured 2 days post compound treatment
Mythimna separata [5] = test: Insecticidal activity against Mythimna separata (Oriental armyworm) fourth-instar larvae infested compound pre-treated corn leaves assessed as insect mortality at 20 mg/kg measured 2 days post compound treatment
Culex pipiens pallens [6] = test: Insecticidal activity against Culex pipiens pallens (mosquito) fourth-instar larvae assessed as insect mortality at 0.1 mg/kg measured 2 days post compound treatment; conditions: 48 h
Culex pipiens pallens [7] = test: Insecticidal activity against Culex pipiens pallens (mosquito) fourth-instar larvae assessed as insect mortality at 0.25 mg/kg measured 2 days post compound treatment; conditions: 48 h
Culex pipiens pallens [8] = test: Insecticidal activity against Culex pipiens pallens (mosquito) fourth-instar larvae assessed as insect mortality at 0.5 mg/kg measured 2 days post compound treatment; conditions: 48 h
Mythimna separata [9] = test: Insecticidal activity against Mythimna separata (Oriental armyworm) fourth-instar larvae infested compound pre-treated corn leaves assessed as insect mortality at 5 mg/kg measured 2 days post compound treatment

| Structure (SMILES) | mortality at 50 mg/kg (Tetranychus cinnabarinus [1]) [%] | mortality at 100 mg/kg (Tetranychus cinnabarinus [2]) [%] | mortality at 200 mg/kg (Tetranychus cinnabarinus [3]) [%] | mortality at 10 mg/kg (Mythimna separata [4]) [%] | mortality at 20 mg/kg (Mythimna separata [5]) [%] | mortality at 0.1 mg/kg (Culex pipiens pallens [6]) [%] | mortality at 0.25 mg/kg (Culex pipiens pallens [7]) [%] | mortality at 0.5 mg/kg (Culex pipiens pallens [8]) [%] | mortality at 5 mg/kg (Mythimna separata [9]) [%] |
| --- | --- | --- | --- | --- | --- | --- | --- | --- | --- |
| C/C=C/NC(=O)C(=O)OCn1c(-c2ccc(Cl)cc2)c(C#N)c(Br)c1C(F)(F)F | 89 | 93 | 96 | 15 | 100 |  |  |  |  |
| N#Cc1c(Br)c(C(F)(F)F)n(COC(=O)C(=O)NC2CCCCC2)c1-c1ccc(Cl)cc1 |  | 46 | 76 | 20 | 100 | 20 | 90 | 100 |  |
| N#Cc1c(Br)c(C(F)(F)F)n(COC(=O)C(=O)Nc2ccccc2)c1-c1ccc(Cl)cc1 | 86 | 92 | 99 | 0 | 100 | 0 | 30 | 100 |  |
| Cc1ccccc1NC(=O)C(=O)OCn1c(-c2ccc(Cl)cc2)c(C#N)c(Br)c1C(F)(F)F |  |  |  | 10 | 100 | 100 | 100 | 100 |  |
| Cc1ccc(NC(=O)C(=O)OCn2c(-c3ccc(Cl)cc3)c(C#N)c(Br)c2C(F)(F)F)cc1 | 79 | 90 | 96 | 10 | 100 | 40 | 100 | 100 |  |
| N#Cc1c(Br)c(C(F)(F)F)n(COC(=O)C(=O)Nc2ccccc2Cl)c1-c1ccc(Cl)cc1 |  | 51 | 71 | 30 | 100 |  |  |  |  |
| N#Cc1c(Br)c(C(F)(F)F)n(COC(=O)C(=O)Nc2ccc(Cl)cc2)c1-c1ccc(Cl)cc1 | 84 | 92 | 100 | 20 | 100 | 0 | 10 | 100 |  |
| CC(C)COC(=O)C(=O)OCn1c(-c2ccc(Cl)cc2)c(C#N)c(Br)c1C(F)(F)F |  |  | 100 | 100 | 100 | 10 | 90 | 100 | 0 |
| CCC(C)OC(=O)C(=O)OCn1c(-c2ccc(Cl)cc2)c(C#N)c(Br)c1C(F)(F)F (stereo not drawn) |  |  | 100 | 100 | 100 | 10 | 90 | 100 | 0 |
| CC(C)(C)OC(=O)C(=O)OCn1c(-c2ccc(Cl)cc2)c(C#N)c(Br)c1C(F)(F)F |  |  |  | 10 | 100 |  |  |  |  |
| N#Cc1c(Br)c(C(F)(F)F)n(COC(=O)C(=O)OCC2CCCC2)c1-c1ccc(Cl)cc1 | 84 | 90 | 100 | 30 | 100 | 20 | 100 | 100 |  |
| N#Cc1c(Br)c(C(F)(F)F)n(COC(=O)C(=O)OC2CCCCC2)c1-c1ccc(Cl)cc1 |  |  |  | 20 | 100 | 20 | 90 | 100 |  |
| C/C=C/OC(=O)C(=O)OCn1c(-c2ccc(Cl)cc2)c(C#N)c(Br)c1C(F)(F)F |  |  |  | 30 | 100 | 80 | 100 | 100 |  |
| N#Cc1c(Br)c(C(F)(F)F)n(COC(=O)C(=O)OCCF)c1-c1ccc(Cl)cc1 | 83 | 92 | 100 | 10 | 100 | 100 | 100 | 100 |  |
| N#Cc1c(Br)c(C(F)(F)F)n(COC(=O)C(=O)OCC(F)(F)F)c1-c1ccc(Cl)cc1 | 92 | 95 | 100 | 10 | 70 | 0 | 30 | 100 |  |
| COCCOC(=O)C(=O)OCn1c(-c2ccc(Cl)cc2)c(C#N)c(Br)c1C(F)(F)F | 94 | 95 | 100 | 20 | 100 | 20 | 90 | 100 |  |
| CCOCCOC(=O)C(=O)OCn1c(-c2ccc(Cl)cc2)c(C#N)c(Br)c1C(F)(F)F |  |  |  | 20 | 100 | 80 | 100 | 100 |  |
| CCCNC(=O)C(=O)OCn1c(-c2ccc(Cl)cc2)c(C#N)c(Br)c1C(F)(F)F |  |  |  | 25 | 100 | 80 | 100 | 100 |  |
| CC(C)NC(=O)C(=O)OCn1c(-c2ccc(Cl)cc2)c(C#N)c(Br)c1C(F)(F)F | 87 | 95 | 100 | 20 | 100 | 30 | 80 | 100 |  |
| CCCCNC(=O)C(=O)OCn1c(-c2ccc(Cl)cc2)c(C#N)c(Br)c1C(F)(F)F |  | 0 | 48 | 0 | 100 | 20 | 90 | 100 |  |
| CCC(C)NC(=O)C(=O)OCn1c(-c2ccc(Cl)cc2)c(C#N)c(Br)c1C(F)(F)F (stereo not drawn) |  |  |  | 30 | 100 |  |  |  |  |
| CC(C)(C)NC(=O)C(=O)OCn1c(-c2ccc(Cl)cc2)c(C#N)c(Br)c1C(F)(F)F |  |  |  | 20 | 100 | 10 | 30 | 100 |  |
| COC(=O)C(=O)OCn1c(-c2ccc(Cl)cc2)c(C#N)c(Br)c1C(F)(F)F |  |  |  | 15 | 100 |  |  |  |  |
| CCOC(=O)C(=O)OCn1c(-c2ccc(Cl)cc2)c(C#N)c(Br)c1C(F)(F)F |  |  |  | 80 | 100 |  |  |  |  |
| CCCOC(=O)C(=O)OCn1c(-c2ccc(Cl)cc2)c(C#N)c(Br)c1C(F)(F)F |  |  | 100 | 100 | 100 | 10 | 100 | 100 | 0 |
| CC(C)OC(=O)C(=O)OCn1c(-c2ccc(Cl)cc2)c(C#N)c(Br)c1C(F)(F)F |  |  | 100 | 70 | 100 | 20 | 100 | 100 |  |
| CCCCOC(=O)C(=O)OCn1c(-c2ccc(Cl)cc2)c(C#N)c(Br)c1C(F)(F)F |  |  |  | 100 | 100 |  |  |  |  |
| CCOCn1c(-c2ccc(Cl)cc2)c(C#N)c(Br)c1C(F)(F)F [CHLORFENAPYR] | 93 | 97 | 100 | 100 | 100 | 100 | 100 | 100 | 0 |
